Laboratory results taken from patent US4113864A (priority 1967, dated 1978).
Converted amounts (≈) assume the structure as drawn. Like-named read-outs stand apart in the source and are kept apart here.

Experiments:
[1] = tested on: rice blast fungi (Pyricularia orysae); assay type: in vivo
[2] = tested on: rice blast fungi (Pyricularia oryzae); assay type: in vivo
[3] = tested on: Adzuki bean weevils (Callosobruchus chinensis Linne); assay type: in vivo; conditions: emulsifiable concentrate; dip 1 minute; after 24 hours
[4] = tested on: carmine mites (Tetranychus telarius Linne); experiment: Test Example 7: leaf dipping test on carmine mites, mortality after 48 hours; assay type: in vivo; conditions: wettable powder, leaf dip 1 minute
Description: Mottled kidney bean plants at the 2 leaves-stage, which had elapsed 20 days after sowing were parasitized with a large number of carmine mites (Tetranychus telarius Linne). […] Subsequently, water was added so as not to wither the leaves. After 48 hours, the alive and dead of the mites were observed.

[5] = tested on: carmine mite (Tetranychus telarius Linne); experiment: whole plant or invertebrate; conditions: in Phaseolus vulgaris
[6] = tested on: carmine mites (Tetranychus terarius Linne); experiment: whole plant or invertebrate; conditions: in Glycine max, 72 h, read-out: Mortality (%) (average of 2 sections)
[7] = tested on: northern house mosquitoes (Culex pipiens pallens Coquillett); experiment: whole plant or invertebrate; assay type: in vivo; conditions: granules in water, after 24 hours
Text: Well water was charged into a 500 cc. beaker. Into the water, full grown larvae of northern house mosquitoes (Culex pipiens pallens Coquillett) were liberated, and the present compounds (12), (16), (17), (23), (25), (26), (27), (29), (30), (85), (87), (88), (89), (94), (95), (96), (97), (100), (102), (103), (104), (105), (106), (107), (108), (109) and (110) in the form of granules were individually charged.

[8] = tested on: carmine mites (Tetranychus telarius Linne); experiment: whole plant or invertebrate; conditions: in Phaseolus vulgaris
[9] = tested on: rice stem borers (Chilo suppressalis Walker); experiment: Test Example 4: mortality of rice stem borers on sprayed rice plants; assay type: in vivo; conditions: diluted 2,000 times; 6 cc. per pot; wettable powder; 4320 min
Description: A rice plant at the tillering stage was grown in a Wagner pot. Onto the rice plant were adhered and encroached eggs of rice stem borers (Chilo suppressalis Walker) immediately before hatching. After 3 days, the rice plant was sprayed with 6 cc. per pot of a solution prepared by diluting with water to 2,000 times the present compound (2) in the form of a wettable powder.

[10] = tested on: rice steam borers (Chilo suppressalis Walker); experiment: Test Example 11: mortality of rice stem borers on sprayed rice plants; assay type: in vivo; conditions: diluted 2,000 times, 6 cc. per pot, wettable powder
Text: (§1) Rice plants at the tillering stage were individually grown in Wagner pots. Onto the rice plants were adhered and encroached eggs of rice steam borers (Chilo suppressalis Walker) immediately before hatching. After 3 days, the rice plants were individually sprayed with each 6 cc. per pot of solutions prepared by diluting with water to 2,000 times the present compounds (11), (14), (15) and (31) in the form of wettable powders.

[11] = tested on: rice stem borers (Chilo suppressalis Walker); experiment: Test Example 20: mortality of rice stem borers on sprayed rice plants; assay type: in vivo; conditions: diluted 2,000 times; 6 cc. per pot; wettable powder; after additional 5 days
Text: as §1, with “stem” for “steam”, “(58) to (62), (65), (68), (85), (88), (96), (104), (107), (109), (110)” for “(11), (14), (15)”, “(112)” for “(31)”

[12] = tested on: carmine mites (Tetranychus terarius Linne); experiment: Test Example 16: leaf dipping test on carmine mites, mortality after 48 hours; assay type: in vivo; conditions: wettable powder, leaf dip 1 minute
Description: Mottled kidney bean plants at the 2 leaves-stage, which had elapsed 20 days after sowing, were parasitized with a large number of carmine mites (Tetranychus terarius Linne). The leaves of said plants parasitized with the mites were individually dipped for 1 minute in each of solutions prepared by diluting with water the present compounds (35) to (37), (41) to (44) and (46) to (56) in the form of wettable powders. Subsequently, water was added so as not to wither the leaves. After 48 hours, the alive and dead of the mites were observed.

[13] = tested on: carmine mite (Tetranychus teralius Linne); conditions: dust 4 kg/10 ares
[14] = tested on: carmine mites (Tetranychus terarius Linne); conditions: diluted 2,000 times; 100 Kg/10 ares; field; after 3 days
[15] = tested on: Small brown plant hopper (Laoclelphex striatellus Fallen); experiment: Test Example 15: insecticidal effects on small brown plant hopper; assay type: in vivo, Laodelphax striatellus Fallen; conditions: rice seedlings dipped 1 minute in emulsion; after 24 hours
Description: Insecticidal effects on Small brown plant hopper (Laoclelphex striatellus Fallen)
Rice seedlings (15-20 cm. in height), which had elapsed 15 days after germination, were individually dipped for 1 minute in emulsions prepared by diluting with water to given concentrations the present compounds (10), (14), (19), (23), (31), (85), (88), (90), (93), (94), (103), (104), (106) and (109) in the form of emulsifiable concentrates. After air-drying, the rice seedlings were individually charged into test glass tubes, and 20-30 plant hoppers (Laodelphax striatellus Fallen) were liberated in each tube, and the tube was covered with gauze.

[16] = tested on: carmine mite (Tetranychus telarius Linne); conditions: dust 4 kg/10 ares

## CCOP(=O)(OCC)SCc1ccccc1 [0,0-Diethyl-S-benzyl-phosphorothioate, reference compound]
[1]; 500 p.p.m.
  Curative value: 69.1
[2]; 1,000 p.p.m.
  Curative value: 78.6

## CCOC(=O)CC(SP(=S)(OC)OC)C(=O)OCC (stereo not drawn) [0,0-Dimethyl-S-(1,2-dicarboethoxyethyl) phosphorodithioate, reference compound]
[3]
  LC50 (diluted times): 8,800 diluted times

## CCOP(=S)(OCC)SC1OCCOC1SP(=S)(OCC)OCC (stereo not drawn) [2,3-p-Dioxane S,S-bis-(0,0-diethyl phosphorodithioate), reference compound]
[4]
  LC50 (diluted times): 1,000,000 diluted times

## CCCCSP(=O)(OCC)Oc1ccccc1 (stereo not drawn) [(1), O-ethyl-O-phenyl-S-n-butyl phosphorothiolate]
[1]; 500 p.p.m.
  Curative value: 80.1

## CCOP(=O)(Oc1ccccc1)SCCSc1ccccc1 (stereo not drawn) [(5), O-ethyl-O-phenyl-S-2-phenylthioethyl-phosphorothiolate]
[5]; 48 h
  mortality at 4 kg/10 ares: 100%
[5]; 120 h
  mortality at 4 kg/10 ares: 98.8%
[5]; 216 h
  mortality at 4 kg/10 ares: 83.4%
[5]; 312 h
  mortality at 4 kg/10 ares: 34.4%

## C=CCSP(=O)(OCC)Oc1ccc(C)cc1 (stereo not drawn) [(33), O-ethyl-O-4-methylphenyl-S-allyl-phosphorothiolate]
[6]
  mortality at 2000 fold dilution: 90.7%

## CCCSP(=O)(OCC)Oc1cc(C)c(Cl)c(C)c1 (stereo not drawn) [(87)]
[7]; Culex pipiens, read-out: LC50
  LC50: 0.054 µg/mL (≈ 0.167 µM)
[6]
  mortality at 2000 fold dilution: 90.6%
[8]; 48 h
  mortality at 4 kg/10 ares: 100%
[8]; 120 h
  mortality at 4 kg/10 ares: 93.7%
[8]; 216 h
  mortality at 4 kg/10 ares: 82.3%
[8]; 312 h
  mortality at 4 kg/10 ares: 31.6%

## CCOC(=O)C(O)(c1ccc(Cl)cc1)c1ccc(Cl)cc1 [Ethyl 4,4'-dichlorobenzilate, reference compound]
[4]
  LC50 (diluted times): 100,000 diluted times

## COP(=S)(OC)Oc1ccc([N+](=O)[O-])c(C)c1 [O,O-dimethyl-O-3-methyl-4-nitrophenyl phosphorothioate]
[9]
  Mortality (%): 94.3%
[10]; Chilo suppressalis, 72 h
  mortality at 2000 fold dilution: 94.3%
[11]
  Mortality (%): 94.3%

## O-ethyl-O-2,4-dichlorophenyl-S-N-phthalimidemethyl-phosphorothiolate [(53)]
[12]
  LC50 (times diluted): 1,000,000 times diluted

## O-ethyl-O-2,4-dichlorophenyl-S-allyl phosphorothiolate [(49)]
[12]
  LC50 (times diluted): 60,000 times diluted

## O-ethyl-O-2,4-dichlorophenyl-S-sec-butyl-phosphorothiolate [(50)]
[12]
  LC50 (times diluted): 90,000 times diluted

## O-ethyl-O-2-chlorophenyl-S-2-phenylethyl phosphorothiolate [(13)]
[4]
  LC50 (diluted times): 1,000,000 diluted times
[13]; After 2 days
  Mortality (%): 100%
[13]; After 5 days
  Mortality (%): 95.3%
[13]; After 9 days
  Mortality (%): 92.1%
[13]; After 13 days
  Mortality (%): 61.2%

## O-ethyl-O-2-chlorophenyl-S-allyl-phosphorothiolate [(46)]
[12]
  LC50 (times diluted): 80,000 times diluted

## O-ethyl-O-2-chlorophenyl-S-propargyl phosphorothiolate [(48)]
[12]
  LC50 (times diluted): 150,000 times diluted

## O-ethyl-O-2-chlorophenyl-S-sec-butyl-phosphorothiolate [(47)]
[12]
  LC50 (times diluted): 15,000 times diluted

## O-ethyl-O-3,4-dimethyl-S-2-phenylthioethylphosphorothiolate [(52)]
[12]
  LC50 (times diluted): 900,000 times diluted

## O-ethyl-O-3,4-dimethylphenyl-S-2-phenylethyl-phosphorothiolate [(9)]
[3]
  LC50 (diluted times): 200,000 diluted times
[13]; After 2 days
  Mortality (%): 100%
[13]; After 5 days
  Mortality (%): 99.2%
[13]; After 9 days
  Mortality (%): 83.4%
[13]; After 13 days
  Mortality (%): 53.4%

## O-ethyl-O-3,5-dimethyl-4-chlorophenyl-S-sec-butyl phosphorothiolate [(54)]
[12]
  LC50 (times diluted): 70,000 times diluted

## O-ethyl-O-4-chlorophenyl-3-sec-butyl phosphorothiolate [(44)]
[12]
  LC50 (times diluted): 330,000 times diluted

## O-ethyl-O-4-chlorophenyl-S-2-ethylthio-ethyl-phosphorothiolate [(51)]
[12]
  LC50 (times diluted): 1,200,000 times diluted

## O-ethyl-O- 3,4-dimethylphenyl-s-(sec)-butyl phosphorothiolate [(37)]
[12]
  LC50 (times diluted): 50,000 times diluted

## O-ethyl-O- 3-methyl-4-chlorophenyl-S-2-phenylethyl-phosphorothiolate [(12)]
[3]
  LC50 (diluted times): 180,000 diluted times
[7]
  LC50: 0.02 p.p.m.
[14]
  Mortality (%) (average of 2 sections): 100.0%

## O-ethyl-O- 3-methylphenyl-S-2-phenylethyl phosphorothiolate [(10)]
[4]
  LC50 (diluted times): 6,000,000 diluted times
[3]
  LC50 (diluted times): 300,000 diluted times
[15]
  LC50 (times diluted): 512,000 times diluted

## O-ethyl-O- 3-methylphenyl-S-(sec)-butyl-phosphorothiolate [(42)]
[12]
  LC50 (times diluted): 1,100,000 times diluted

## O-ethyl-O- 3-methylphenyl-S-allyl-phosphorothiolate [(41)]
[12]
  LC50 (times diluted): 1,100,000 times diluted

## O-ethyl-O- 4-(tert)-butylphenyl-S-allyl phosphorothiolate [(36)]
[12]
  LC50 (times diluted): 540,000 times diluted

## O-ethyl-O- 4-chlorophenyl-S-2-phenylethyl phosphorothiolate [(11)]
[4]
  LC50 (diluted times): 256,000 diluted times
[3]
  LC50 (diluted times): 105,000 diluted times
[10]; 4320 min
  Mortality (%): 96.3%
[2]; in vivo
  Curative value: 87.1

## O-ethyl-O- 4-chlorophenyl-S-allylphosphorothiolate [(43)]
[12]
  LC50 (times diluted): 11,000 times diluted

## O-ethyl-O- 4-methylphenyl-S-(sec)-butyl-phosphorothiolate [(34)]
[2]; in vivo
  Curative value: 97.2
[14]
  Mortality (%) (average of 2 sections): 96.4%

## O-ethyl-O- 4-methylphenyl-S-propargyl phosphorothiolate [(35)]
[12]
  LC50 (times diluted): 12,000,000 times diluted

## O-ethyl-O-phenyl-S-2-phenylethyl-phosphorothiolate [(4)]
[16]; After 2 days
  Mortality (%): 100%
[16]; After 5 days
  Mortality (%): 92.4%
[16]; After 9 days
  Mortality (%): 81.3%
[16]; After 13 days
  Mortality (%): 70.3%

## O-ethyl-O-phenyl-S-allylphosphorothiolate [(3)]
[1]; in vivo
  Curative value: 98.6

## O-ethyl-O-phenyl-S-sec-butyl phosphorothiolate [(55)]
[12]
  LC50 (times diluted): 90,000 times diluted

## Phenylmercuric acetate [reference compound]
[1]; in vivo
  Curative value: 47.6
[2]; in vivo
  Curative value: 47.7
